Converted amounts (≈) assume the structure as drawn. No end group written: not given here.
Assays:
[1] = system: B. pyocyaneum ATCC 27853; assay type: cell-based, Bacterium pyocyaneum
Method: (§1) The minimal inhibitory concentration (MIC) was determined according to a previously described method ([Chou et al., 2016]). Bacteria were cultured overnight to mid-log phase in MHB at 37°C and then diluted to give final concentrations ranging from 2 × 10^5 to 7 × 10^5 CFU/mL. Then, 50 μL of serial twofold dilutions of the peptides were added to each well in 96-well microtiter plates with a mixed solution containing 0.01% acetic acid and 0.2% bovine serum albumin (BSA, Sigma) was used to dissolve and dilute the peptides. Then, equal amounts of bacterial aliquots were incubated with the above peptide solution for 18–24 h at 37°C. The experiment was performed in triplicate using three replicates for each peptide and each bacterium. The broth was employed as a negative control and the broth with microbial cells was used as a positive control. The lowest concentration of peptide that prevented visible turbidity was defined as the MIC.

[2] = system: B. subtilis CMCC 63501; assay type: cell-based, Bacillus subtilis
Method: as §1

[3] = system: S. aureus ATCC 43300; assay type: cell-based, Staphylococcus aureus
Method: as §1

[4] = system: S. typhimurium ATCC 7731; assay type: cell-based, Salmonella entericaserovar Typhimurium
Method: as §1

[5] = system: hRBCs; assay: Hemolytic activity; assay type: cell-based, human; conditions: peptide concentration resulting in 5% hemolysis of hRBCs; PBS, 1 h, 37°C
Method: (§2) The hemolytic activity of the peptides was detected using a previously described modified method ([Wang et al., 2015]). One milliliter of fresh hRBCs was obtained from a healthy donor (Zhihua Wang, Harbin, China) in a polycarbonate tube containing heparin. The collected hRBCs were centrifuged at 1000 × g for 5 min at 4°C and resuspended in PBS buffer (pH 7.2). The hRBCs were washed three times and then incubated with an equal volume of the respective peptide dissolved in PBS for 1 h at 37°C. Then, the hRBC suspension was placed into a 96-well microtiter plater with 50 μL of tested peptide solution at different concentrations and the mixture was incubated for 1 h at 37°C. […] The minimum hemolytic concentrations (MHCs) were defined as the peptide concentrations resulting in 5% hemolysis.

[6] = system: S. faecalis ATCC 29212; assay type: cell-based, Streptococcus faecalis
Method: as §1

[7] = system: S. epidermidis ATCC 12228; assay type: cell-based, Staphylococcus epidermidis
Method: as §1

[8] = system: E. coli ATCC25922; assay type: cell-based, Escherichia coli; conditions: for MIC / MIC, CaCl2 / MIC, Control / MIC, FeCl3 / MIC, Heat (100°C) / MIC, KCl / MIC, MgCl2 / MIC, NH4Cl / MIC, NaCl / MIC, ZnCl2: ATCC25922; for MIC, pH 4.0: ATCC25922, pH 4; for MIC, pH 6.0: ATCC25922, pH 6; for MIC, pH 8.0: ATCC25922, pH 8; for MIC, pH 10.0: ATCC25922, pH 10
Method: as §1, with “18-24” for “18–24”, “MIC. The condition sensitivity of peptides was tested in an MIC assay in different environments, including salt sensitivity, thermal sensitivity and different pH values similar to our previous method ([[…] et al., 2008]; [Ma et al., 2012]). […] For the heat resistance experiments, the peptides were incubated at 100°C for 30 min and cooled on ice for 10 min. […] The determination methods for these MIC assays were same as described above. To test the effects of serum on the antimicrobial activities of the peptides, human serum was dissolved in MHB to reach final concentrations of 25 and 50%. The determination methods for these MIC assays were same as described above.” for “MIC.”

[9] = system: S. pullorum C79-13; assay type: cell-based, Salmonella pullorum
Method: as §1

[10] = system: Gram-negative and Gram-positive bacterial strains; assay: Geometric mean of MICs and therapeutic index; assay type: cell-based; conditions: for GM (geometric mean of the MIC values): all ten tested strains; for Therapeutic index: from MHC and GM
Method: as §2, §1

[11] = system: E. coli UB1005; assay type: cell-based, Escherichia coli
Method: as §1

[12] = system: S. aureus ATCC 29213; assay type: cell-based, Staphylococcus aureus; conditions: for MIC / MIC, CaCl2 / MIC, Control / MIC, FeCl3 / MIC, Heat (100°C) / MIC, KCl / MIC, MgCl2 / MIC, NH4Cl / MIC, NaCl / MIC, ZnCl2: ATCC 29213; for MIC, pH 4.0: ATCC 29213, pH 4; for MIC, pH 6.0: ATCC 29213, pH 6; for MIC, pH 8.0: ATCC 29213, pH 8; for MIC, pH 10.0: ATCC 29213, pH 10
Method: as §1, with “18-24” for “18–24”, “MIC. The condition sensitivity of peptides was tested in an MIC assay in different environments, including salt sensitivity, thermal sensitivity and different pH values similar to our previous method ([[…] et al., 2008]; [Ma et al., 2012]). […] For the heat resistance experiments, the peptides were incubated at 100°C for 30 min and cooled on ice for 10 min. […] The determination methods for these MIC assays were same as described above. To test the effects of serum on the antimicrobial activities of the peptides, human serum was dissolved in MHB to reach final concentrations of 25 and 50%. The determination methods for these MIC assays were same as described above.” for “MIC.”

[13] = system: S. aureus; assay: Time killing assay; assay type: cell-based, Staphylococcus aureus; conditions: mean of three independent assays
Method: (§3) The ability of peptides to kill bacterial cells was further investigated by analyzing the fraction of cell survival upon peptide treatment at various exposure times according to a previously described method ([Wiradharma et al., 2012]). Briefly, E. coli and S. aureus were treated at MIC and 2 × MIC concentrations with peptides. At various time periods (0, 5, 10, 30, 60, 90, 120, and 150 min), microbial suspensions were diluted at three different dilutions and plated on MHA plates. Microbial colonies were formed and counted after 24 h of incubation. The results were presented as the mean data from three independent assays.

[14] = system: E. coli; assay: Time killing assay; assay type: cell-based, Escherichia coli; conditions: mean of three independent assays
Method: as §3

[15] = RP-HPLC retention time as measure of relative hydrophobicity; assay type: physicochemical; conditions: analytical RP-HPLC; hydrophobicity increases with retention time
Method: These peptides' […] identified via matrix-assisted laser desorption/ionization time-of-flight mass spectrometry (MALDI-TOF MS, Linear Scientific Inc., United States), using α-cyano-4-hydroxycinnamic acid as the matrix. […] Quantitative peptides were dissolved in deionized water and stored at -20°C before the assessments. The rest of the peptides were stored as powders at -20°C to prevent peptide degradation. The structures and molecular weights of the peptides were verified by MALDI-TOF MS. […] The relative hydrophobicity of the symmetric-end peptides was reliably reflected by their different HPLC retention times, and the hydrophobicity increased with increasing HPLC retention times ([Lee et al., 2014]; [Zhu et al., 2014]). The HPLC retention times for […]

Molecule: IHKFWRRWFKHI-NH2 [Qa]
- MIC [1]: 16 µM
- MIC [2]: 32 µM
- MIC [3]: 16 µM
- MIC [4]: 16 µM
- MHC (minimum hemolytic concentration) [5]: >128 µM
- MIC [6]: 16 µM
- MIC [7]: 16 µM
- MIC [8]: 16 µM
- MIC [9]: 16 µM
- GM (geometric mean of the MIC values) [10]: 14.9 µM
- Therapeutic index [10]: 17.2
- MIC [11]: 8 µM
- MIC [12]: 8 µM

Molecule: IHKFWRPGRWFKHI-NH2 [PP]
- MIC [1]: 4 µM
- MIC [2]: 8 µM
- MIC [3]: 16 µM
- MIC [4]: 8 µM
- MHC (minimum hemolytic concentration) [5]: >128 µM
- MIC [6]: 8 µM
- MIC [7]: 16 µM
- MIC [8]: 8 µM
- MIC, CaCl2 [8]: 4 µM
- MIC, Control [8]: 8 µM
- MIC, FeCl3 [8]: 4 µM
- MIC, Heat (100°C) [8]: 8 µM
- MIC, KCl [8]: 4 µM
- MIC, MgCl2 [8]: 2 µM
- MIC, NH4Cl [8]: 2 µM
- MIC, NaCl [8]: 8 µM
- MIC, ZnCl2 [8]: 2 µM
- MIC, pH 4.0 [8]: 8 μM
- MIC, pH 6.0 [8]: 8 μM
- MIC, pH 8.0 [8]: 16 μM
- MIC, pH 10.0 [8]: 8 μM
- MIC [9]: 4 µM
- GM (geometric mean of the MIC values) [10]: 8.0 µM
- Therapeutic index [10]: 32.0
- MIC [11]: 4 µM
- MIC [12]: 16 µM
- MIC, CaCl2 [12]: 32 µM
- MIC, Control [12]: 16 µM
- MIC, FeCl3 [12]: 8 µM
- MIC, Heat (100°C) [12]: 16 µM
- MIC, KCl [12]: 16 µM
- MIC, MgCl2 [12]: 16 µM
- MIC, NH4Cl [12]: 8 µM
- MIC, NaCl [12]: 128 µM
- MIC, ZnCl2 [12]: 4 µM
- MIC, pH 4.0 [12]: 16 μM
- MIC, pH 6.0 [12]: 16 μM
- MIC, pH 8.0 [12]: 16 μM
- MIC, pH 10.0 [12]: 16 μM

Molecule: CC(C)C[C@H](NC(=O)[C@H](CCCNC(=N)N)NC(=O)CNC(=O)CNC(=O)[C@@H](N)CCCNC(=N)N)C(=O)N[C@H]1CSSC[C@@H](C(=O)N[C@H](C(=O)NCC(=O)N[C@@H](CCCNC(=N)N)C(N)=O)C(C)C)NC(=O)[C@H](C(C)C)NC(=O)[C@@H]2CSSC[C@H](NC(=O)[C@H](Cc3ccc(O)cc3)NC1=O)C(=O)N[C@@H](CCCNC(=N)N)C(=O)N[C@@H](CCCNC(=N)N)C(=O)N[C@@H](CCCNC(=N)N)C(=O)N[C@@H](Cc1ccccc1)C(=O)N2 [PG-1, reference compound]
- MIC [1]: 16 µM (≈ 34.5 µg/mL)
- Time to kill S. aureus ([13]; peptide at 1 × MIC): 5 min
- Time to kill S. aureus ([13]; peptide at 2 × MIC): 10 min
- MIC [2]: 8 µM (≈ 17.2 µg/mL)
- MIC [3]: 2 µM (≈ 4.31 µg/mL)
- MIC [4]: 8 µM (≈ 17.2 µg/mL)
- Time to kill E. coli ([14]; peptide at 1 × MIC): 10 min
- Time to kill E. coli ([14]; peptide at 2 × MIC): 10 min
- MIC [6]: 16 µM (≈ 34.5 µg/mL)
- MIC [7]: 16 µM (≈ 34.5 µg/mL)
- Retained time (HPLC retention time) [15]: 12.56 min
- MIC [8]: 2 µM (≈ 4.31 µg/mL)
- MIC, CaCl2 [8]: 4 µM (≈ 8.62 µg/mL)
- MIC, Control [8]: 2 µM (≈ 4.31 µg/mL)
- MIC, FeCl3 [8]: 4 µM (≈ 8.62 µg/mL)
- MIC, Heat (100°C) [8]: 8 µM (≈ 17.2 µg/mL)
- MIC, KCl [8]: 2 µM (≈ 4.31 µg/mL)
- MIC, MgCl2 [8]: 2 µM (≈ 4.31 µg/mL)
- MIC, NH4Cl [8]: 2 µM (≈ 4.31 µg/mL)
- MIC, NaCl [8]: 4 µM (≈ 8.62 µg/mL)
- MIC, ZnCl2 [8]: 2 µM (≈ 4.31 µg/mL)
- MIC, pH 4.0 [8]: 4 μM
- MIC, pH 6.0 [8]: 4 μM
- MIC, pH 8.0 [8]: 4 μM
- MIC, pH 10.0 [8]: 4 μM
- MIC [9]: 2 µM (≈ 4.31 µg/mL)
- MIC [11]: 2 µM (≈ 4.31 µg/mL)
- MIC [12]: 8 µM (≈ 17.2 µg/mL)
- MIC, CaCl2 [12]: 16 µM (≈ 34.5 µg/mL)
- MIC, Control [12]: 8 µM (≈ 17.2 µg/mL)
- MIC, FeCl3 [12]: 8 µM (≈ 17.2 µg/mL)
- MIC, Heat (100°C) [12]: 16 µM (≈ 34.5 µg/mL)
- MIC, KCl [12]: 8 µM (≈ 17.2 µg/mL)
- MIC, MgCl2 [12]: 8 µM (≈ 17.2 µg/mL)
- MIC, NH4Cl [12]: 8 µM (≈ 17.2 µg/mL)
- MIC, NaCl [12]: 32 µM (≈ 69 µg/mL)
- MIC, ZnCl2 [12]: 8 µM (≈ 17.2 µg/mL)
- MIC, pH 4.0 [12]: 8 μM
- MIC, pH 6.0 [12]: 8 μM
- MIC, pH 8.0 [12]: 8 μM
- MIC, pH 10.0 [12]: 16 μM

Molecule: IHKFWRGGRWFKHI-NH2 [GG]
- MIC [1]: 16 µM
- MIC [2]: 16 µM
- MIC [3]: 32 µM
- MIC [4]: 64 µM
- MIC [6]: 32 µM
- MIC [7]: 32 µM
- Retained time (HPLC retention time) [15]: 10.24 min
- MIC [8]: 8 µM
- MIC [9]: 8 µM
- MIC [11]: 8 µM
- MIC [12]: 16 µM

Molecule: IHFKWRRWKFHI-NH2 [Qna]
- MIC [1]: 32 µM
- MIC [2]: 64 µM
- MIC [3]: 32 µM
- MIC [4]: 32 µM
- MHC (minimum hemolytic concentration) [5]: >128 µM
- MIC [6]: 64 µM
- MIC [7]: 32 µM
- MIC [8]: 32 µM
- MIC [9]: 32 µM
- GM (geometric mean of the MIC values) [10]: 34.3 µM
- Therapeutic index [10]: 7.5
- MIC [11]: 16 µM
- MIC [12]: 32 µM

— article PMC6277555, “Short Symmetric-End Antimicrobial Peptides Centered on β-Turn Amino Acids Unit Improve Selectivity and Stability” (Frontiers in Microbiology, 2018)
